The numbers were not newly measured in patent publication US20230064685A1, “METHODS AND COMPOSITIONS TO INHIBIT SYMPTOMS ASSOCIATED WITH VEISALGIA” (SEN-JAM PHARMACEUTICAL LLC, priority 2015, published 2023), which cites them from elsewhere.

In one data set the test system is alcohol hangover. Conditions: randomized controlled trials reviewed by Pittler et al. 2005.
Data set [1] concerns hangover symptom of thirst. The note with it: each drug alone; general statement, no test described.

Consider `CCCCC/C=C\C/C=C\C/C=C\CCCCC(=O)O` [γ linolenic acid from B officinalis, γ linolenic acid], for which, in the data set with alcohol hangover, the “intergroup differences for overall symptom scores and individual symptoms” value is “Significant intergroup differences”.
Take `CC(C)(C(=O)O)c1ccc(C(O)CCCN2CCC(C(O)(c3ccccc3)c3ccccc3)CC2)cc1` (racemic) [fexofenadine, (±)-4-[1 hydroxy-4-[4-(hydroxydiphenylmethyl)-1-piperidinyl]-butyl]-α, α-dimethyl benzeneacetic acid]: in data set [1], the “effect or side effect of reducing thirst” value was “neither naproxen nor fexofenadine, alone, has shown any effect or side effect of reducing thirst”.
As to `COc1ccc2cc(C(C)C(=O)O)ccc2c1` (stereo not drawn) [naproxen, 6-methoxy-α-methyl-2-naphthaleneacetic acid], the “effect or side effect of reducing thirst” value in data set [1] is listed as “neither naproxen nor fexofenadine, alone, has shown any effect or side effect of reducing thirst”.
Regarding `Cc1c(Cl)cccc1Nc1ccccc1C(=O)O` [tolfenamic acid], the “intergroup differences for overall symptom scores and individual symptoms” value with alcohol hangover was “Significant intergroup differences”.
